Results taken from US12678412B2, “Substituted tolans for the modulation of microbial colonization” (BioMendics, LLC, priority 2017, dated 2026).

Assays:
Format in all cases: cell-based
[1] = system: S. typhimurium TA100; experiment: Dose range finding colony forming assay, strain TA100 with metabolic activation
Protocol: (§1) A series of dose range finding assays were performed with five bacterial strains, S. typhimurium TA97a, TA98, TA100, TA1535, and E. coli WP2 uvrA pKM101, with and without metabolic activation at three plates per dose. The following doses, along with positive and negative controls, were tested: 5000, 2500, 1250, 500, 250, 125, 50, 20, 10, 5, 2, 1, and 0.2 μg/plate. The plates were evaluated for toxicity (a decrease in plate counts with increasing dose and/or a visible thinning of the background lawn) and for precipitation of the test article. Metabolic activation was included in some samples by adding phenobarbital/benzoflavone-induced rat liver S9 fractions with cofactors (S9 mix). Prior to use, freshly thawed aliquots of rat liver S9 were mixed with a sterile cofactor mix. The S9 mix contains a 10% liver S9 concentration and was refrigerated or stored on ice until used. When testing with metabolic activation, the S9 mix was used in the assay tube in place of phosphate buffer.
(§2) Dosing formulations were prepared to deliver all doses in a constant volume of 0.1 mL. The highest dose was prepared from test article weighed to the nearest 0.1 mg and the remaining formulations were prepared as serial dilutions from the high dose stock formulation. Using a permanent marking pen or computer printed labels, assay plates were labeled with the project and study numbers and the date. Assay plates and tubes were labeled with a unique identifier, which was used to match the assay tubes with the properly identified minimal glucose agar plate.
(§3) The pre-incubation method was used to perform the assay. The assay mix consisted of 0.1 mL of the test article formulation or control article, 0.5 mL S9 mix or phosphate buffer, and 0.1 mL of bacterial culture. Assay tubes were incubated at 37±1° C. with gentle agitation for 20±1 minutes, then 2.0-2.5 mL top agar was added to the assay mix and the top agar/assay mix poured onto appropriately labeled minimal glucose agar plates. Once the top agar hardened, the plates were inverted and incubated at 37±1° C. for 48±2 hours. Plates were counted with the Sorcerer (v. 2.2)/Ames Study Manager (v. 1.2.4) system from Perceptive Instruments (Suffolk, UK). With this system, plate counts are automatically transferred from the plate imager (Sorcerer) to a Study Manager spreadsheet, and the data are stored in a secure manner on an Oracle database. Some plates were hand counted, e.g., if sample precipitate interferes with automatic counting or toxicity results in the formation of microcolonies, in which case, counts for these plates were entered into the spreadsheet manually. Plates were scored also with the extent of colonization by a post fix code.

[2] = system: S. typhimurium TA1535; experiment: Dose range finding colony forming assay, strain TA1535 without metabolic activation
Protocol: as §1, §2, §3

[3] = system: Candida albicans ATCC 64550; experiment: Colony forming assay, spread plate, Candida albicans; conditions: Formulation C, compared to low dose, vehicle, Tobramycin and untreated control, 24 h, FIG. 8
Protocol: A fresh culture of pathogenic isolate was used in these examples. The bacterial strains used were Methicillin Resistant Staphylococcus aureus (MRSA USA 300), Pseudomonas aeruginosa ATCC 27312, and Candida albicans ATCC 64550.
FIG. 5 illustrates the spread plate method used in these examples. In sum, agar plates were made, bacteria were diluted to 10^6 or 10^8 CFU/mL, bacteria and drug were mixed together and then plated. Glass spreading beads were used because they give a better bacterial spread. Plates were incubated for 24 hrs then the colonies that formed were counted.
Proliferating cultures of Pseudomonas aeruginosa (PA, ATCC 27312) and Candida albicans (CA, ATCC 64550) were used in a colony forming assay. Freeze-dried bacteria cultures were recovered by swabbing a 3-cm diameter growth area and resuspending it to obtain a final inoculum suspension of approximately 10^6 CFU/mL. The concentration was confirmed using historical optical density measurements. […] Plates were photographed and counted. […]
Colony counts for each treatment were tabulated and the Log of the colony forming units/mL (Log CFU/mL) were determined. The mean and standard deviation of the Log CFU/mL were calculated for each treatment. […]

In the case of `COc1ccc(C#Cc2ccc(O)cc2)cc1` [BM3103, 4-hydroxy-4′-methoxytolan], the Colony forming units/plate ([1]; 0.2 μg/plate) is reported as 78 colony forming units/plate, the Individual colony counts ([1]; 0.2 μg/plate) is reported as 78 and the Colony forming units/plate ([1]; 1 μg/plate) is reported as 56.0 colony forming units/plate. The Individual colony counts ([1]; 1 μg/plate) was 56, the Colony forming units/plate ([1]; 2 μg/plate) was 36.0 colony forming units/plate and the Individual colony counts ([1]; 2 μg/plate) was 360. For the same compound, the Colony forming units/plate ([1]; 5 μg/plate) was 74.0 colony forming units/plate, the Individual colony counts ([1]; 5 μg/plate) was 74 and the Colony forming units/plate ([1]; 10 μg/plate) was 38.0 colony forming units/plate. The Individual colony counts ([1]; 10 μg/plate) was 38, the “Plate postfix code (individual colony counts)” value (shortened to “Plate postfix code”) ([1]; 10 μg/plate) was “S T” and the Colony forming units/plate ([1]; 20 μg/plate) was 54.0 colony forming units/plate. For the same compound, the Individual colony counts ([1]; 20 μg/plate) was 54, the Colony forming units/plate ([1]; 50 μg/plate) was 0.0 colony forming units/plate and the Individual colony counts ([1]; 50 μg/plate) was 0. For the same compound, the Colony forming units/plate ([1]; 125 μg/plate) was 0.0 colony forming units/plate, the Individual colony counts ([1]; 125 μg/plate) was 0 and the Colony forming units/plate ([1]; 250 μg/plate) was 0.0 colony forming units/plate. For the same compound, the Individual colony counts ([1]; 250 μg/plate) was 0, the Colony forming units/plate ([1]; 500 μg/plate) was 0.0 colony forming units/plate and the Individual colony counts ([1]; 500 μg/plate) was 0. For the same compound, the Colony forming units/plate ([1]; 1250 μg/plate) was 0.0 colony forming units/plate, the Individual colony counts ([1]; 1250 μg/plate) was 0 and the “Plate postfix code” value ([1]; 1250 μg/plate) was “A P”. For the same compound, the Colony forming units/plate ([1]; 2500 μg/plate) was 0.0 colony forming units/plate, the Individual colony counts ([1]; 2500 μg/plate) was 0 and the “Plate postfix code” value ([1]; 2500 μg/plate) was “A P”. For the same compound, the Colony forming units/plate ([1]; 5000 μg/plate) was 0.0 colony forming units/plate, the Individual colony counts ([1]; 5000 μg/plate) was 0 and the “Plate postfix code” value ([1]; 5000 μg/plate) was “A P”. For the same compound, the Colony forming units/plate ([2]; 0.2 μg/plate) was 12.0 colony forming units/plate, the Individual colony counts ([2]; 0.2 μg/plate) was 12 and the Colony forming units/plate ([2]; 1 μg/plate) was 11.0 colony forming units/plate. The Individual colony counts ([2]; 1 μg/plate) was 11, the Colony forming units/plate ([2]; 2 μg/plate) was 10.0 colony forming units/plate and the Individual colony counts ([2]; 2 μg/plate) was 10. The Colony forming units/plate ([2]; 5 μg/plate) was 6.0 colony forming units/plate, the Individual colony counts ([2]; 5 μg/plate) was 6 and the Colony forming units/plate ([2]; 10 μg/plate) was 0.0 colony forming units/plate. For the same compound, the Individual colony counts ([2]; 10 μg/plate) was 0, the “Plate postfix code” value ([2]; 10 μg/plate) was “A T” and the Colony forming units/plate ([2]; 20 μg/plate) was 0.0 colony forming units/plate. For the same compound, the Individual colony counts ([2]; 20 μg/plate) was 0, the Colony forming units/plate ([2]; 50 μg/plate) was 0.0 colony forming units/plate and the Individual colony counts ([2]; 50 μg/plate) was 0. For the same compound, the Colony forming units/plate ([2]; 125 μg/plate) was 0.0 colony forming units/plate, the Individual colony counts ([2]; 125 μg/plate) was 0 and the Colony forming units/plate ([2]; 250 μg/plate) was 0.0 colony forming units/plate. The Individual colony counts ([2]; 250 μg/plate) was 0, the Colony forming units/plate ([2]; 500 μg/plate) was 0.0 colony forming units/plate and the Individual colony counts ([2]; 500 μg/plate) was 0. For the same compound, the Colony forming units/plate ([2]; 1250 μg/plate) was 0.0 colony forming units/plate, the Individual colony counts ([2]; 1250 μg/plate) was 0 and the “Plate postfix code” value ([2]; 1250 μg/plate) was “A P”. The Colony forming units/plate ([2]; 2500 μg/plate) was 0.0 colony forming units/plate, the Individual colony counts ([2]; 2500 μg/plate) was 0 and the “Plate postfix code” value ([2]; 2500 μg/plate) was “A P”. For the same compound, the Colony forming units/plate ([2]; 5000 μg/plate) was 0.0 colony forming units/plate, the Individual colony counts ([2]; 5000 μg/plate) was 0 and the “Plate postfix code” value ([2]; 5000 μg/plate) was “A P”. For the same compound, the “Reduction of CA counts” value ([3]; high dose 0.5% w/v, 22 mM) was “about 4 fold” and the “Reduction of CA counts” value ([3]; medium dose 0.25% w/v, 11 mM) was “about 4 fold”.
